Data on 5 compounds can be found in patent US9314541B2, “In vivo imaging method for cancer” (GE Healthcare Limited, priority 2010, dated 2016).

Structures are written as SMILES.

One data set deals with PBR (Homo sapiens, UniProt P30536). Conditions: in vivo; cited from earlier work.
The conditions of data set [1]: cited from earlier work.
The conditions of data set [2]: compared with 11C-PK11195; cited from earlier work.
Data set [3] can be described thus: In vivo biodistribution method. The settings on record: for OB:Str 30 min: ratio olfactory bulb to striatum, 30 min after injection. Further details: species or system Wistar rats.
Description: Imaging agents of the invention were tested in an in vivo biodistribution model.
Adult male Wistar rats (200-300 g) were injected with 1-3 MBq of test compound via the lateral tail vein. At 2, 10, 30 or 60 min (n=3) after injection, rats were euthanised and tissues or fluids were sampled for radioactive measurement on a gamma counter.
The next data set deals with T1, Wistar rat heart PBR (Rattus norvegicus, UniProt P16257).
T1 construct: from tissue; host or cells: Wistar rat heart
The data set can be described thus: In vitro potency assay: competition against 0.3 nM [3H]PK-11195 for binding to PBR. The settings on record: non-radioactive analogues tested; vs 0.3 nM [3H]PK-11195; 50 mM Tris-HCl pH 7.4, 10 mM MgCl2, 15 minutes at 25° C. The method, then: Non-radioactive analogues of in vivo imaging agents of the invention were tested.
The reaction was carried out in 50 mM Tris-HCl, pH 7.4 10 mM MgCl2 for 15 minutes at 25° C.

Chain of PBR (P30536 whole entry, species assumed): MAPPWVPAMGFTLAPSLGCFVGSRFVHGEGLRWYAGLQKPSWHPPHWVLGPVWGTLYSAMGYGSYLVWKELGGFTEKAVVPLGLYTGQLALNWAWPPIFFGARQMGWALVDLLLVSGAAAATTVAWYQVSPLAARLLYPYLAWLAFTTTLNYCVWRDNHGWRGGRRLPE

With `CC[C@H](C)N([11CH3])C(=O)c1cc2ccccc2c(-c2ccccc2Cl)n1` [[^11C]PK11195], on PBR, the brain uptake result was “relatively low and variable”; the “levels of non-specific binding” value is “relatively high”. Moreover, the plasma protein binding entry in data set [1] was “high and variable”.
Take `CCN(CC)C(=O)Cc1c(-c2ccc(OCC[18F])cc2)nn2c(C)cc(C)nc12` [^18F-DPA-714]: the bioavailability result in data set [2] is “increased”.
Regarding `CN(Cc1ccccc1)C(=O)C1CCCc2c1c1ccccc1n2CC[18F]` (stereo not shown) [compound 7], the “OB:Str 30 min” value in data set [3] is listed as 3.40.
On to `O=C(C1CCCc2c1c1ccccc1n2CC[18F])N1CCCCCC1` (stereo not shown) [compound 9], for which the “Brain 2 min (% ID/g)” value in data set [3] (brain, 2 min after injection via lateral tail vein, 1-3 MBq, adult male Wistar rats) turned out to be 0.56 % ID/g. In data set [3] (olfactory bulb, 30 min after injection via lateral tail vein, adult male Wistar rats), the “OB 30 min (% ID/g)” value is 0.41 % ID/g. Moreover, in data set [3], the “OB:Str 30 min” value is listed as 3.72.
As to `CCN(CC)C(=O)C1CC(C)Cc2c1c1ccccc1n2CC[18F]` (stereo not shown) [compound 11], the inhibition constant Ki (usually the dissociation constant of the complex between target and ligand, obtained from inhibition or displacement) at Wistar rat heart PBR came to 2.12 nM. Further, in data set [3], the “OB:Str 30 min” value worked out at 3.50.
